Test [1] concerns the target T1, ALK (Homo sapiens, UniProt Q9UM73).
T1 construct: host or cells: baculovirus expression system
Put plainly: ALK Kinase Assay (ELISA/TRF, PLC-γ substrate). Type of test: biochemical. The settings on record: read-out: ALK Potency. In a few lines: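 Wells were coated with 10 μg/mL phospholipase C-γ substrate in TBS, and the reaction was started by adding 30 ng/ml ALK enzyme and run at 37° C for 15 minutes. Phosphorylated product was detected with Eu-N1-labeled PT66 antibody, and IC50 values came from sigmoidal variable-slope fits of percent inhibition against log concentration.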
In general terms: An ELISA detects its analyte on a solid surface through an enzyme-linked reagent.

The target in test [2] is T2, JAK2 (Homo sapiens, UniProt O60674).
T2 construct: host or cells: baculovirus expression system
T2 sequence (O60674 whole entry): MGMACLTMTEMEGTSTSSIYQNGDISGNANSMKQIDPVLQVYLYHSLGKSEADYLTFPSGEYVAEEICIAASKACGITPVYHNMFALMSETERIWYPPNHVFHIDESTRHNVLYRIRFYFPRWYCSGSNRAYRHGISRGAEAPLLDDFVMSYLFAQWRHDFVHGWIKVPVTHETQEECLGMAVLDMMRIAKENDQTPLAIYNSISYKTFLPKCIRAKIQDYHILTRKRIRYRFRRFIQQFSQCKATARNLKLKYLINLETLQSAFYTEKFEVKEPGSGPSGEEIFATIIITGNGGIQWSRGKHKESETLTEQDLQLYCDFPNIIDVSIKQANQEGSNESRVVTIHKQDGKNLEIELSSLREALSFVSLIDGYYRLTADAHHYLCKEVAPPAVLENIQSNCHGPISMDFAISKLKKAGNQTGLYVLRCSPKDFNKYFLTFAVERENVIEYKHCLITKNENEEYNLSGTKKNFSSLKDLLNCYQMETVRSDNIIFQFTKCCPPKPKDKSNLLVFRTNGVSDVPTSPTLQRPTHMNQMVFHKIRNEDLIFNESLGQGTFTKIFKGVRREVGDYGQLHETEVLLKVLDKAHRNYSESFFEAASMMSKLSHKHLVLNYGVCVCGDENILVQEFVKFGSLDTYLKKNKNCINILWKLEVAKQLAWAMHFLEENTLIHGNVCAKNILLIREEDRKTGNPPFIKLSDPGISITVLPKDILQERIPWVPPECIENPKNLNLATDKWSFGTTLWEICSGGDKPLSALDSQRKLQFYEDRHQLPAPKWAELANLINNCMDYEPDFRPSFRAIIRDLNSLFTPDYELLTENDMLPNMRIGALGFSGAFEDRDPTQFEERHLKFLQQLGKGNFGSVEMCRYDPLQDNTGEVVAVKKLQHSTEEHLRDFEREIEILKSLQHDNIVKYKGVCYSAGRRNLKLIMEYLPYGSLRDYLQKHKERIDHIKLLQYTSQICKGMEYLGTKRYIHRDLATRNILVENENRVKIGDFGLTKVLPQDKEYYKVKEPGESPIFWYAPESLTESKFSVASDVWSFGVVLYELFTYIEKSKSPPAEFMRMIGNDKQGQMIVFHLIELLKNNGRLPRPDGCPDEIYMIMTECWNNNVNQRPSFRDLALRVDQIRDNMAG
Put plainly: Recombinant Human JAK2 Kinase Assay (TRF). Type of test: biochemical. The note with it: read-out: JAK2 Potency. Put shortly: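 Baculovirus-expressed JAK2 (15 ng/ml) phosphorylated a biotinylated 15-mer peptide captured on Neutravidin, in 20 mM HEPES pH 7.2, 0.2 μM ATP, 1 mM MnCl2, 0.1% BSA, 2.5% DMSO final, 20 min at room temperature. Phosphoproduct detected by time-resolved fluorescence with Eu-N1-labelled PY100 antibody.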

The mark [3] stands for this setting: ALK kinase inhibition, 1 μM ATP.
Where [4] appears, read: JAK2 kinase inhibition, 0.2 μM ATP.

Where two headings read alike, the source gives them in different places.

T1 sequence (Q9UM73 19-1620): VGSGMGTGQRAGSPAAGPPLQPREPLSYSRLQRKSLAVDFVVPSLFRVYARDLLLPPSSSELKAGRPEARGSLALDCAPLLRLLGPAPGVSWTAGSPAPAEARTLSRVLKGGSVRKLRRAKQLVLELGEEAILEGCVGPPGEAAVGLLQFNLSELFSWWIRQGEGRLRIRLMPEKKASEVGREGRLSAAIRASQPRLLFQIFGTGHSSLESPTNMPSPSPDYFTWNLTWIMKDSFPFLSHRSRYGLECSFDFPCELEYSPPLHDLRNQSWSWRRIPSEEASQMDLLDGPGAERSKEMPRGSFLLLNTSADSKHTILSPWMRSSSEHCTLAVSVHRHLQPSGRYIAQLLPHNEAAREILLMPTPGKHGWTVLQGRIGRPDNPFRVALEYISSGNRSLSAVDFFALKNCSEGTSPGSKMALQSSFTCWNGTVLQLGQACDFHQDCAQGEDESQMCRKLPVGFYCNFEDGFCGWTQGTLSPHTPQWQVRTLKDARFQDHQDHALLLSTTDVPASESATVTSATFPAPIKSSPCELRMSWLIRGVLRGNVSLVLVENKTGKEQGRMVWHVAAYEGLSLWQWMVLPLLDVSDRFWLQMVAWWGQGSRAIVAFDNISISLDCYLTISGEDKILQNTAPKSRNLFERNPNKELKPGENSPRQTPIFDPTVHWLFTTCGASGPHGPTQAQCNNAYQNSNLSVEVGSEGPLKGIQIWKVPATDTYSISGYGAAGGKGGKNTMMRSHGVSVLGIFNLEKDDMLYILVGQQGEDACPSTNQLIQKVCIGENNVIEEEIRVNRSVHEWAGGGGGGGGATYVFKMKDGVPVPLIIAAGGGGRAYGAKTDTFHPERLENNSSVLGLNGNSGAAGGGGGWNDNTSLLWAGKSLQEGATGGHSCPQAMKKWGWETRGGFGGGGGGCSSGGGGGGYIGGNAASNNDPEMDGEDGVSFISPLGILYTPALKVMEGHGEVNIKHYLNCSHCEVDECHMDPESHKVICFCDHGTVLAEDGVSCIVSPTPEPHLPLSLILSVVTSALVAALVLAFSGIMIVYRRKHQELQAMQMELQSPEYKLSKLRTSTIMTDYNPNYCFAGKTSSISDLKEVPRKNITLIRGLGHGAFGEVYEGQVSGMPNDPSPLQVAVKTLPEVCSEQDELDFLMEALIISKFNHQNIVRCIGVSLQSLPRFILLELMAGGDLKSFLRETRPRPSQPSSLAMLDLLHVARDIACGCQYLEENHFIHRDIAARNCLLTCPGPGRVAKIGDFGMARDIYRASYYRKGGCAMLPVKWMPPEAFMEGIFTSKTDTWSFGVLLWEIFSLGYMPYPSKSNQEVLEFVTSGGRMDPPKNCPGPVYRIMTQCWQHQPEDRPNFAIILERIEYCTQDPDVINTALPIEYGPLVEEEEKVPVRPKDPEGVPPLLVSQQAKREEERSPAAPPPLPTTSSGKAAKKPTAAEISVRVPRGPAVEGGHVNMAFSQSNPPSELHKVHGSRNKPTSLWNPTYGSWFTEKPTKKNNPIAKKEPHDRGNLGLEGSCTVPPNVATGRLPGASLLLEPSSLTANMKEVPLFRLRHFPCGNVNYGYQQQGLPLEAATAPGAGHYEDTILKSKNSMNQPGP

Take `COc1cc(N2CCC(N3CCOCC3)C2)ccc1Nc1ncc2ccc(-c3ccccc3N(C)S(C)(=O)=O)n2n1` (racemic) [Example 782, (±)-N-(2-{2-[2-Methoxy-4-(3-morpholin-4-yl-pyrrolidin-1-yl)-phenylamino]-pyrrolo[2,1-f][1,2,4]triazin-7-yl}-phenyl)-N-methyl-methanesulfonamide]: the IC50 was less than 100 nM in test [1] (setting [3]) and 100 to 1000 nM in test [2] (setting [4]).

With `NC(=O)CN1CCC(c2ccc(Nc3ncc4ccc(-c5cccc6cccnc56)n4n3)cc2)CC1` [Example 514, 2-{4-[4-(7-Quinolin-8-yl-pyrrolo[2,1-f][1,2,4]triazin-2-ylamino)-phenyl]-piperidin-1-yl}-acetamide], the IC50 in test [1] (setting [3]) was 1000 to 10000 nM; in test [2] (setting [4]) it was less than 100 nM.

For `CN1CCN(C2CCCN(c3ccc(Nc4ncc5ccc(-c6cccnc6)n5n4)cc3)C2)CC1` (stereo not drawn) [Example 352, {4-[3-(4-Methyl-piperazin-1-yl)-piperidin-1-yl]-phenyl}-(7-pyridin-3-yl-pyrrolo[2,1-f][1,2,4]triazin-2-yl)-amine], the IC50 in test [1] (ALK Kinase Inhibition) is 100 to 1000 nM; in test [2] (JAK2 Kinase Inhibition), less than 100 nM.

`CC(C)(C)NS(=O)(=O)c1cccc(-c2ccc3cnc(Nc4ccc(C5CCN(C(=O)OC(C)(C)C)CC5)cc4)nn23)c1` [Example 1058, 4-{4-[7-(3-tert-Butylsulfamoyl-phenyl)-pyrrolo[2,1-f][1,2,4]triazin-2-ylamino]-phenyl}-piperidine-1-carboxylic acid tert-butyl ester]: the values for the IC50 in test [1] (setting [3]) and in test [2] (setting [4]) were greater than 10000 nM and less than 100 nM, respectively.

In the case of `COc1cc(C2CCNCC2)ccc1Nc1ncc2ccc(-c3cccc(S(=O)(=O)NC(C)(C)C)c3)n2n1` [Example 691, N-tert-Butyl-3-[2-(2-methoxy-4-piperidin-4-yl-phenylamino)-pyrrolo[2,1-f][1,2,4]triazin-7-yl]-benzenesulfonamide], the IC50 is less than 100 nM in test [1] (setting [3]) and 100 to 1000 nM in test [2] (setting [4]).

Turning to `COc1ccc(Nc2ncc3ccc(-c4cccc(S(=O)(=O)NC(C)(C)C)c4)n3n2)cc1N1CCCC1=O` [Example 1377, N-tert-Butyl-3-{2-[4-methoxy-3-(2-oxo-pyrrolidin-1-yl)-phenylamino]-pyrrolo[2,1-f][1,2,4]triazin-7-yl}-benzenesulfonamide], the IC50 in test [1] (ALK Kinase Inhibition) was 100 to 1000 nM; in test [2] (JAK2 Kinase Inhibition) it was less than 100 nM.

On to `COc1ccc(Cl)cc1-c1ccc2cnc(Nc3ccc(C4CCN(C)CC4)cc3)nn12` [Example 1121, [7-(5-Chloro-2-methoxy-phenyl)-pyrrolo[2,1-f][1,2,4]triazin-2-yl]-[4-(1-methyl-piperidin-4-yl)-phenyl]-amine], for which the IC50 in test [1] (setting [3]) and in test [2] (setting [4]) was less than 100 nM in each case.

As for `CN1CCCC1COc1cc(Nc2ncc3ccc(-c4ccccc4N(C)S(C)(=O)=O)n3n2)ccc1Cl` (stereo not drawn) [Example 1010, N-(2-{2-[4-Chloro-3-(1-methyl-pyrrolidin-2-ylmethoxy)-phenylamino]-pyrrolo[2,1-f][1,2,4]triazin-7-yl}-phenyl)-N-methyl-methanesulfonamide], the IC50 is 100 to 1000 nM in test [1] (setting [3]) and less than 100 nM in test [2] (setting [4]).

As to `CC(=O)N1CCCC(C)(C)c2ccc(Nc3ncc4ccc(-c5cnn(C)c5)n4n3)cc21` [Example 1381, 1-{5,5-Dimethyl-8-[7-(1-methyl-1H-pyrazol-4-yl)-pyrrolo[2,1-f][1,2,4]triazin-2-ylamino]-2,3,4,5-tetrahydro-benzo[b]azepin-1-yl}-ethanone], the figures for the IC50 in test [1] (ALK Kinase Inhibition) and in test [2] (JAK2 Kinase Inhibition) were 1000 to 10000 nM and less than 100 nM, respectively.

As for `CC(C)(C)NS(=O)(=O)c1cccc(-c2ccc3cnc(Nc4ccc(C(N)=O)cc4)nn23)c1` [Example 1399, 4-[7-(3-tert-Butylsulfamoyl-phenyl)-pyrrolo[2,1-f][1,2,4]triazin-2-ylamino]-benzamide], the IC50 in test [1] (ALK Kinase Inhibition) was 1000 to 10000 nM; in test [2] (JAK2 Kinase Inhibition) it was less than 100 nM.

Turning to `COc1cc2c(cc1Nc1ncc3ccc(-c4cccc5c4OCC5)n3n1)CCCC(N1CCN(CCO)CC1)C2` (stereo not drawn) [Example 707, 2-(4-{2-[7-(2,3-Dihydro-benzofuran-7-yl)-pyrrolo[2,1-f][1,2,4]triazin-2-ylamino]-3-methoxy-6,7,8,9-tetrahydro-5H-benzocyclohepten-6-yl}-piperazin-1-yl)-ethanol], the IC50 was less than 100 nM in test [1] (setting [3]) and 100 to 1000 nM in test [2] (setting [4]).

For `COc1cc2c(cc1Nc1ncc3ccc(-c4cccc(S(=O)(=O)NC(C)(C)C)c4)n3n1)CCN(CCO)CC2` [Example 699], the IC50 in test [1] (setting [3]) is less than 100 nM; in test [2] (setting [4]), 100 to 1000 nM.

As for `COc1ccccc1-c1ccc2cnc(Nc3ccc4c(c3OC)CN(C3CCN(C)CC3)C4)nn12` [Example 853, [4-Methoxy-2-(1-methyl-piperidin-4-yl)-2,3-dihydro-1H-isoindol-5-yl]-[7-(2-methoxy-phenyl)-pyrrolo[2,1-f][1,2,4]triazin-2-yl]-amine], the IC50 was less than 100 nM in test [1] (setting [3]) and 100 to 1000 nM in test [2] (setting [4]).

For `COc1ccccc1-c1ccc2cnc(Nc3ccc4nn(CCN5CCOCC5)cc4c3)nn12` [Example 1351, [7-(2-Methoxy-phenyl)-pyrrolo[2,1-f][1,2,4]triazin-2-yl]-[2-(2-morpholin-4-yl-ethyl)-2H-indazol-5-yl]-amine], the IC50 is 100 to 1000 nM in test [1] (setting [3]) and less than 100 nM in test [2] (setting [4]).

With `COCCOc1ncc2ccc(-c3cccc(Cl)c3)n2n1` [Example 190, 7-(3-Chloro-phenyl)-2-(2-methoxy-ethoxy)-pyrrolo[2,1-f][1,2,4]triazine], the IC50 in test [1] (ALK Kinase Inhibition) was greater than 10000 nM; in test [2] (JAK2 Kinase Inhibition), less than 100 nM.

Turning to `CN1CCN(c2ccc(Nc3ncc4ccc(-c5ccc(C=O)o5)n4n3)cc2)CC1` [Example 1196, 5-{2-[4-(4-Methyl-piperazin-1-yl)-phenylamino]-pyrrolo[2,1-f][1,2,4]triazin-7-yl}-furan-2-carbaldehyde], the values for the IC50 in test [1] (setting [3]) and in test [2] (setting [4]) were 100 to 1000 nM and less than 100 nM, respectively.

Regarding `Fc1cccc(-c2ccc3cnc(Nc4cccc(N5CCOCC5)c4)nn23)c1` [Example 175, [7-(3-Fluoro-phenyl)-pyrrolo[2,1-f][1,2,4]triazin-2-yl]-(3-morpholin-4-yl-phenyl)-amine], the IC50 in test [1] (ALK Kinase Inhibition) is 100 to 1000 nM; in test [2] (JAK2 Kinase Inhibition), less than 100 nM.

As to `CN(c1ccccc1-c1ccc2cnc(Nc3ccc4nc(C(C)(C)C)[nH]c4c3)nn12)S(C)(=O)=O` [Example 1341, N-{2-[2-(2-tert-Butyl-3H-benzimidazol-5-ylamino)-pyrrolo[2,1-f][1,2,4]triazin-7-yl]-phenyl}-N-methyl-methanesulfonamide], the IC50 in test [1] (setting [3]) was 100 to 1000 nM; in test [2] (setting [4]), less than 100 nM.

Turning to `COc1cc(C2CCN(CC(=O)N3CCNCC3)CC2)ccc1Nc1ncc2ccc(-c3ccccc3OC)n2n1` [Example 1276, 2-(4-{3-Methoxy-4-[7-(2-methoxy-phenyl)-pyrrolo[2,1-f][1,2,4]triazin-2-ylamino]-phenyl}-piperidin-1-yl)-1-piperazin-1-yl-ethanone], the IC50 is less than 100 nM in test [1] (setting [3]) and 100 to 1000 nM in test [2] (setting [4]).

As for `CC(=O)Nc1cccc(Nc2ncc3ccc(-c4cccc(C(=O)NC(C)(C)C)c4)n3n2)c1` [Example 886, 3-[2-(3-Acetylamino-phenylamino)-pyrrolo[2,1-f][1,2,4]triazin-7-yl]-N-tert-butyl-benzamide], the IC50 is 1000 to 10000 nM in test [1] (setting [3]) and less than 100 nM in test [2] (setting [4]).

With `COc1cc2c(cc1Nc1ncc3ccc(-c4cccc5c4OCC5)n3n1)CCN(C[C@@H](C)O)CC2` [Example 522, (R)-1-{7-[7-(2,3-Dihydro-benzofuran-7-yl)-pyrrolo[2,1-f]triazin-2-ylamino]-8-methoxy-1,2,4,5-tetrahydro-benzo[d]azepin-3-yl}-propan-2-ol], the IC50 in test [1] (setting [3]) was less than 100 nM; in test [2] (setting [4]), 100 to 1000 nM.

On to `CN1CCN(c2ccc(Nc3ncc4ccc(-c5ccccc5OCC(=O)N(C)C)n4n3)cc2)CC1` [Example 1403, N,N-Dimethyl-2-(2-{2-[4-(4-methyl-piperazin-1-yl)-phenylamino]-pyrrolo[2,1-f][1,2,4]triazin-7-yl}-phenoxy)-acetamide], for which the IC50 is 100 to 1000 nM in test [1] (ALK Kinase Inhibition) and less than 100 nM in test [2] (JAK2 Kinase Inhibition).

`CS(=O)(=O)c1ccc(-c2ccc3cnc(Nc4cccc(N5CCOCC5)c4)nn23)cc1F` [Example 193, [7-(3-Fluoro-4-methanesulfonyl-phenyl)-pyrrolo[2,1-f][1,2,4]triazin-2-yl]-(3-morpholin-4-yl-phenyl)-amine]: the figures for the IC50 in test [1] (ALK Kinase Inhibition) and in test [2] (JAK2 Kinase Inhibition) were 1000 to 10000 nM and less than 100 nM, respectively.

`Cc1cc(-c2ccc3cnc(Nc4ccc(N5CCN(C)CC5)cc4)nn23)cnc1F` [Example 1046, [7-(6-Fluoro-5-methyl-pyridin-3-yl)-pyrrolo[2,1-f][1,2,4]triazin-2-yl]-[4-(4-methyl-piperazin-1-yl)-phenyl]-amine]: the IC50 was 100 to 1000 nM in test [1] (setting [3]) and less than 100 nM in test [2] (setting [4]).

As to `COc1cc([C@@H]2CCN(CCF)C[C@@H]2O)ccc1Nc1ncc2ccc(-c3ccccc3N(C)S(C)(=O)=O)n2n1` (racemic) [Example 843, (±)-N-[2-(2-{4-[(3R,4S)-1-(2-Fluoro-ethyl)-3-hydroxy-piperidin-4-yl]-2-methoxy-phenylamino}-pyrrolo[2,1-f][1,2,4]triazin-7-yl)-phenyl]-N-methyl-methanesulfonamide], the IC50 is less than 100 nM in test [1] (setting [3]) and 100 to 1000 nM in test [2] (setting [4]).

Turning to `COc1ccc(Nc2ncc3cc4ccccc4n3n2)cc1` [Example 752, (4-Methoxy-phenyl)-[1,2,4]triazino[1,6-a]indol-2-yl-amine], the IC50 in test [1] (setting [3]) is greater than 10000 nM; in test [2] (setting [4]), less than 100 nM.

For `CN1CCN(C(=O)c2cccc(Nc3ncc4ccc(-c5ccc(S(C)(=O)=O)cc5)n4n3)c2)CC1` [Example 342, {3-[7-(4-Methanesulfonyl-phenyl)-pyrrolo[2,1-f][1,2,4]triazin-2-ylamino]-phenyl}-(4-methyl-piperazin-1-yl)-methanone], the IC50 was 1000 to 10000 nM in test [1] (ALK Kinase Inhibition) and less than 100 nM in test [2] (JAK2 Kinase Inhibition).
